In US4018801A, “Substituted oxirane compounds” (The Dow Chemical Company, priority 1975, dated 1977):

Assays:
Assay type in all cases: in vivo
[1] = system: White Winter Wheat; experiment: Pre-emergent control of seed germination, soil drench; conditions: about 2 weeks
Description: (§1) Four parts by weight of the compound, 0.08 part of sorbitan trioleate (Span 85), and 0.02 part of a sorbitan monooleate polyoxyethylene derivative (Tween 80) are dipersed in 40 milliliters of acetone to produce a concentrate composition in the form of a water-dispersible liquid containing the predetermined oxirane compound as the sole active agent.
(§2) A portion of each of these concentrate compositions were separately dispersed in portions of water to provide aqueous compositions, containing 0.44 pound of the oxirane compound per 100 gallons of ultimate aqueous mixture.
(§3) The aqueous compositions were then employed for the treatment of seed beds of good agricultural soil which had been prepared and seeded with the seeds of various grass species and broadleaf plants. The grass species included white winter wheat, cultured rice, pigweeds, crabgrass, cheat grass, wild oats, Johnson grass, barnyard grass and yellow foxtail; and the broadleaf plants included corn. In the treating operations, a predetermined quantity of each of the compositions was applied to separate seedbeds as a soil drench at a rate of about 0.43 acre inch of aqueous composition per acre. The quantities were controlled to supply a substantial uniform dosage in a seedbed equivalent to 1.0, 2.0 and 5.0 pounds of the oxirane compound per acre. These dosages correspond, respectively, to a concentration, within the soil depth penetrated of about 1.6, 3.2 and 8.0 parts by weight of the oxirane compound per million parts by weight of soil. Other seedbeds were similarly seeded with the named plant species but were left untreated to serve as checks.
(§4) After about 2 weeks the seedbeds were examined to ascertain what control of the growth of seeds had been obtained.
(§5) An aqueous composition containing 2-(α,α,α -trifluoro-m-tolyl)-2-(2,2,2-trichloroethyl)oxirane was prepared as described in Example 32. The composition was then employed according to the procedures of Example 32 except that lower concentrations of the oxirane compound were employed in the composition.
(§6) The percent control of the various plant species at the employed dosage rate of the 2-(α,α,α-trifluoro-m-tolyl)- 2-(2,2,2-trichloroethyl) supplied by the composition is set forth in the following Table IV.

[2] = system: Cultured Rice; experiment: as above; conditions: about 2 weeks
Description: as §1, §2, §3, §4, §5, §6

[3] = system: Water-Grass; experiment: Comparative pre-emergence herbicide test
Description: as §1, §2, §3, §4
Separate aqueous compositions containing the 2-(m-chlorophenyl)-2-(2,2,2-trichloroethyl)oxirane (Cmpd. A) and 2-(m-bromophenyl)-2-(2,2,2-trichloroethyl)oxirane (Cmpd. C) compounds of the present invention were prepared as in Example 32 for comparative per-emergence herbicide tests against noxious grass species with the known 2 -(p-chlorophenyl)-2-(2,2,2-trichloroethyl)oxirane (Cmpd. B) compound and 2-(p-bromophenyl)-2-(2,2,2-trichloroethyl)oxirane (Cmpd. D). The pre-emergence tests were conducted in Example 32 and the results of such tests are set forth below in Table III.

[4] = system: Corn; experiment: Pre-emergent control of seed germination, soil drench; conditions: about 2 weeks
Description: as §1, §2, §3
After about 2 weeks the seedbeds were examined to ascertain what control of the growth of seeds had been obtained. […]
as §5, §6

[5] = system: Crabgrass; experiment: as above; conditions: for Percent Pre-Emergent Control of Seed Germination: Crabgrass, about 2 weeks; for % Control: pre-emergence, Crab Grass
[6] = system: Johnson Grass; experiment: as above; conditions: Johnson Grass; for Percent Pre-Emergent Control of Seed Germination: about 2 weeks; for % Control: pre-emergence
[7] = system: Corn; experiment: Post-emergent control, foliage spray; conditions: about two weeks
Procedure: (§7) An aqueous composition containing 2-(m-bromophenyl)- 2-(2,2,2-trichloroethyl)oxirane was prepared as described in Example 32. Separate portions of this composition were thereafter dispersed in a further quantity of water to prepare aqueous spray compositions containing 250, 500, 1000, 2000 and 4000 parts, respectively of the compound per million parts by weight of ultimate treating composition. These compositions were applied as foliage sprays to various grass and broadleaf plant species, the plants being of two to four inches in height and growing in seed beds. The treatments were carried out with conventional spray equipment, the plants being sprayed to the point of run-off. Similar beds of the plant species were left untreated to serve as checks. After about two weeks, the beds were examined to ascertain what control of the growth of plants had been obtained. The plant species employed, together with the percent control obtained at the employed dosage rate of the composition is set forth in the following Table V.

[8] = system: Pinto Beans; experiment: Post-emergent control, foliage spray; conditions: about two weeks
Procedure: as §7

[9] = system: Soybean; experiment: Post-emergent control, foliage spray; conditions: about two weeks
Procedure: as §7

[10] = system: Cotton; experiment: Post-emergent control, foliage spray; conditions: about two weeks
Procedure: as §7

[11] = system: Wild Oats; experiment: Post-emergent control, foliage spray; conditions: about two weeks
Procedure: as §7

[12] = system: Pigweeds; experiment: Pre-emergent control of seed germination, soil drench; conditions: Pig Weeds, about 2 weeks
Method in brief: (§8)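 Compound formulated with Span 85/Tween 80 in acetone, dispersed in water, and applied as a soil drench to seeded beds at 1.0, 2.0 and 5.0 lb/acre (about 1.6, 3.2, 8.0 ppm soil); lower concentrations also tested. Germination control scored versus untreated checks after about 2 weeks.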

[13] = system: Barnyard Grass; experiment: as above; conditions: Barnyard Grass, about 2 weeks
Method in brief: as §8

[14] = system: Yellow Foxtail; experiment: as above; conditions: Yellow Foxtail, about 2 weeks
Method in brief: as §8

[15] = system: Wild Oats; experiment: as above; conditions: Wild Oats, about 2 weeks
Method in brief: as §8

## ClC(Cl)(Cl)CC1(c2cccc(Br)c2)CO1 (stereo not drawn) [Example 3, 2-(m-bromophenyl)-2-(2,2,2-trichloroethyl)oxirane]
[1]; 1.0 pounds per surface acre
  Percent Pre-Emergent Control of Seed Germination: 100%
[1]; 2.0 pounds per surface acre
  Percent Pre-Emergent Control of Seed Germination: 100%
[1]; 5.0 pounds per surface acre
  Percent Pre-Emergent Control of Seed Germination: 100%
[2]; 2.0 pounds per surface acre
  Percent Pre-Emergent Control of Seed Germination: 100%
[2]; 5.0 pounds per surface acre
  Percent Pre-Emergent Control of Seed Germination: 100%
[3]; 1/8 Lb/Acre
  % Control: 95%
[3]; 1/16 Lb/Acre
  % Control: 90%
[4]; 1.0 pounds per surface acre
  Percent Pre-Emergent Control of Seed Germination: 30%
[4]; 2.0 pounds per surface acre
  Percent Pre-Emergent Control of Seed Germination: 95%
[4]; 5.0 pounds per surface acre
  Percent Pre-Emergent Control of Seed Germination: 95%
[5]; 1.0 pounds per surface acre
  Percent Pre-Emergent Control of Seed Germination: 0%
[5]; 2.0 pounds per surface acre
  Percent Pre-Emergent Control of Seed Germination: 100%
[5]; 5.0 pounds per surface acre
  Percent Pre-Emergent Control of Seed Germination: 100%
[5]; 1/8 Lb/Acre
  % Control: 95%
[5]; 1/16 Lb/Acre
  % Control: 70%
[6]; 1.0 pounds per surface acre
  Percent Pre-Emergent Control of Seed Germination: 95%
[6]; 2.0 pounds per surface acre
  Percent Pre-Emergent Control of Seed Germination: 95%
[6]; 5.0 pounds per surface acre
  Percent Pre-Emergent Control of Seed Germination: 100%
[6]; 1/8 Lb/Acre
  % Control: 95%
[6]; 1/16 Lb/Acre
  % Control: 95%
[7]; 250 parts per million
  Percent Post-Emergent Control of Seed Germination: 0%
[7]; 500 parts per million
  Percent Post-Emergent Control of Seed Germination: 30%
[7]; 1000 parts per million
  Percent Post-Emergent Control of Seed Germination: 50%
[7]; 2000 parts per million
  Percent Post-Emergent Control of Seed Germination: 95%
[7]; 4000 parts per million
  Percent Post-Emergent Control of Seed Germination: 95%
[8]; 250 parts per million
  Percent Post-Emergent Control of Seed Germination: 50%
[8]; 500 parts per million
  Percent Post-Emergent Control of Seed Germination: 50%
[8]; 1000 parts per million
  Percent Post-Emergent Control of Seed Germination: 50%
[8]; 2000 parts per million
  Percent Post-Emergent Control of Seed Germination: 75%
[8]; 4000 parts per million
  Percent Post-Emergent Control of Seed Germination: 75%
[9]; 250 parts per million
  Percent Post-Emergent Control of Seed Germination: 30%
[9]; 500 parts per million
  Percent Post-Emergent Control of Seed Germination: 30%
[9]; 1000 parts per million
  Percent Post-Emergent Control of Seed Germination: 50%
[9]; 2000 parts per million
  Percent Post-Emergent Control of Seed Germination: 75%
[9]; 4000 parts per million
  Percent Post-Emergent Control of Seed Germination: 85%
[10]; 250 parts per million
  Percent Post-Emergent Control of Seed Germination: 0%
[10]; 500 parts per million
  Percent Post-Emergent Control of Seed Germination: 0%
[10]; 1000 parts per million
  Percent Post-Emergent Control of Seed Germination: 50%
[10]; 2000 parts per million
  Percent Post-Emergent Control of Seed Germination: 50%
[10]; 4000 parts per million
  Percent Post-Emergent Control of Seed Germination: 65%
[11]; 250 parts per million
  Percent Post-Emergent Control of Seed Germination: 50%
[11]; 500 parts per million
  Percent Post-Emergent Control of Seed Germination: 70%
[11]; 1000 parts per million
  Percent Post-Emergent Control of Seed Germination: 85%
[11]; 2000 parts per million
  Percent Post-Emergent Control of Seed Germination: 85%
[11]; 4000 parts per million
  Percent Post-Emergent Control of Seed Germination: 95%
[12]; 1.0 pounds per surface acre
  Percent Pre-Emergent Control of Seed Germination: 95%
[12]; 2.0 pounds per surface acre
  Percent Pre-Emergent Control of Seed Germination: 100%
[12]; 5.0 pounds per surface acre
  Percent Pre-Emergent Control of Seed Germination: 100%
[13]; 1.0 pounds per surface acre
  Percent Pre-Emergent Control of Seed Germination: 95%
[13]; 2.0 pounds per surface acre
  Percent Pre-Emergent Control of Seed Germination: 95%
[13]; 5.0 pounds per surface acre
  Percent Pre-Emergent Control of Seed Germination: 95%
[14]; 1.0 pounds per surface acre
  Percent Pre-Emergent Control of Seed Germination: 100%
[14]; 2.0 pounds per surface acre
  Percent Pre-Emergent Control of Seed Germination: 100%
[14]; 5.0 pounds per surface acre
  Percent Pre-Emergent Control of Seed Germination: 95%
[15]; 1.0 pounds per surface acre
  Percent Pre-Emergent Control of Seed Germination: 100%
[15]; 2.0 pounds per surface acre
  Percent Pre-Emergent Control of Seed Germination: 100%
[15]; 5.0 pounds per surface acre
  Percent Pre-Emergent Control of Seed Germination: 100%
